{"source": "patent US11571373B2", "about": "“Skin care preparations for babies” (priority 2015, dated 2023)", "origin": "cited, not measured here", "key": {"[1]": {"settings": "species and route not given"}, "[2]": {"settings": "in vivo"}}, "data": [{"compound": "[O-2].[Zn+2]", "note": "[Zinc oxide (CI 77947), Zinc oxide]", "values": [{"measurement": "solubility in water", "result": 0.00016, "unit": "g/100 ml water"}]}, {"compound": "C12-C13 Pareth-4", "values": [{"measurement": "The actual or estimated LD50 value", "setting": "[1]", "result": "2,000 mg/kg body weight"}]}, {"compound": "Disodium Laureth Sulfosuccinate", "values": [{"measurement": "The actual or estimated LD50 value", "setting": "[1]", "result": "5,000 mg/kg body weight"}]}, {"compound": "Sodium Cocoamphoacetate", "values": [{"measurement": "The actual or estimated LD50 value", "setting": "[1]", "result": "14,859 mg/kg body weight"}, {"measurement": "Oral LD50 value (rat)", "setting": "rat", "result": "14,859 mg/kg"}]}, {"compound": "Tocopherol", "values": [{"measurement": "average absorption", "setting": "[2]", "result": "40-60%"}, {"measurement": "share transported via the lymphatic system into the bloodstream", "setting": "[2]", "result": "About 90%"}, {"measurement": "extent of oral absorption", "setting": "[2]; po", "result": "20-80%"}]}]}
